Assays:
Assay type in all cases: biochemical
CaMKK2 (h) = molecular target: T1, CaMKK2 (h) (Homo sapiens, UniProt Q96RR4); assay: CAMKK2 kinase activity assay (DiscoverX/Eurofins, radiometric [gamma-33P]-ATP); details: ATP concentration of 10 µM
T1 construct: purchased DiscoverX/Eurofins
Method: The assay is available as a product of DiscoverX/Eurofins. CaMKK2 (h) was incubated with 20 mM Tris/HCl pH 8.5, 0.2 mM EDTA, 0.5% BSA, 0.5 mM CaCl2, 0.016 mg/mL calmodulin, 150 µM […], 10 mM MgAcetate and [gamma-33P]-ATP (specific activity and concentration of 10 µM). The reaction was initiated by the addition of the Mg/ATP mix. After incubation for 40 min 13 at room temperature, the reaction was stopped by the addition of phosphoric acid to a concentration of 0.5%. An aliquot of the reaction was then spotted onto a filter and washed four times for 4 min in 0.425% phosphoric acid and once in methanol prior to drying and scintillation counting.

ATM (h) = molecular target: T2, ATM (h) (Homo sapiens, UniProt Q13315); assay: ATM kinase activity assay (DiscoverX/Eurofins, HTRF); details: ATP 10 µM; for remaining activity at 10 µM: compound at 10 μM, read-out: ATM residual activity at 10μM
T2 construct: purchased DiscoverX/Eurofins
T2 sequence (Q13315 whole entry): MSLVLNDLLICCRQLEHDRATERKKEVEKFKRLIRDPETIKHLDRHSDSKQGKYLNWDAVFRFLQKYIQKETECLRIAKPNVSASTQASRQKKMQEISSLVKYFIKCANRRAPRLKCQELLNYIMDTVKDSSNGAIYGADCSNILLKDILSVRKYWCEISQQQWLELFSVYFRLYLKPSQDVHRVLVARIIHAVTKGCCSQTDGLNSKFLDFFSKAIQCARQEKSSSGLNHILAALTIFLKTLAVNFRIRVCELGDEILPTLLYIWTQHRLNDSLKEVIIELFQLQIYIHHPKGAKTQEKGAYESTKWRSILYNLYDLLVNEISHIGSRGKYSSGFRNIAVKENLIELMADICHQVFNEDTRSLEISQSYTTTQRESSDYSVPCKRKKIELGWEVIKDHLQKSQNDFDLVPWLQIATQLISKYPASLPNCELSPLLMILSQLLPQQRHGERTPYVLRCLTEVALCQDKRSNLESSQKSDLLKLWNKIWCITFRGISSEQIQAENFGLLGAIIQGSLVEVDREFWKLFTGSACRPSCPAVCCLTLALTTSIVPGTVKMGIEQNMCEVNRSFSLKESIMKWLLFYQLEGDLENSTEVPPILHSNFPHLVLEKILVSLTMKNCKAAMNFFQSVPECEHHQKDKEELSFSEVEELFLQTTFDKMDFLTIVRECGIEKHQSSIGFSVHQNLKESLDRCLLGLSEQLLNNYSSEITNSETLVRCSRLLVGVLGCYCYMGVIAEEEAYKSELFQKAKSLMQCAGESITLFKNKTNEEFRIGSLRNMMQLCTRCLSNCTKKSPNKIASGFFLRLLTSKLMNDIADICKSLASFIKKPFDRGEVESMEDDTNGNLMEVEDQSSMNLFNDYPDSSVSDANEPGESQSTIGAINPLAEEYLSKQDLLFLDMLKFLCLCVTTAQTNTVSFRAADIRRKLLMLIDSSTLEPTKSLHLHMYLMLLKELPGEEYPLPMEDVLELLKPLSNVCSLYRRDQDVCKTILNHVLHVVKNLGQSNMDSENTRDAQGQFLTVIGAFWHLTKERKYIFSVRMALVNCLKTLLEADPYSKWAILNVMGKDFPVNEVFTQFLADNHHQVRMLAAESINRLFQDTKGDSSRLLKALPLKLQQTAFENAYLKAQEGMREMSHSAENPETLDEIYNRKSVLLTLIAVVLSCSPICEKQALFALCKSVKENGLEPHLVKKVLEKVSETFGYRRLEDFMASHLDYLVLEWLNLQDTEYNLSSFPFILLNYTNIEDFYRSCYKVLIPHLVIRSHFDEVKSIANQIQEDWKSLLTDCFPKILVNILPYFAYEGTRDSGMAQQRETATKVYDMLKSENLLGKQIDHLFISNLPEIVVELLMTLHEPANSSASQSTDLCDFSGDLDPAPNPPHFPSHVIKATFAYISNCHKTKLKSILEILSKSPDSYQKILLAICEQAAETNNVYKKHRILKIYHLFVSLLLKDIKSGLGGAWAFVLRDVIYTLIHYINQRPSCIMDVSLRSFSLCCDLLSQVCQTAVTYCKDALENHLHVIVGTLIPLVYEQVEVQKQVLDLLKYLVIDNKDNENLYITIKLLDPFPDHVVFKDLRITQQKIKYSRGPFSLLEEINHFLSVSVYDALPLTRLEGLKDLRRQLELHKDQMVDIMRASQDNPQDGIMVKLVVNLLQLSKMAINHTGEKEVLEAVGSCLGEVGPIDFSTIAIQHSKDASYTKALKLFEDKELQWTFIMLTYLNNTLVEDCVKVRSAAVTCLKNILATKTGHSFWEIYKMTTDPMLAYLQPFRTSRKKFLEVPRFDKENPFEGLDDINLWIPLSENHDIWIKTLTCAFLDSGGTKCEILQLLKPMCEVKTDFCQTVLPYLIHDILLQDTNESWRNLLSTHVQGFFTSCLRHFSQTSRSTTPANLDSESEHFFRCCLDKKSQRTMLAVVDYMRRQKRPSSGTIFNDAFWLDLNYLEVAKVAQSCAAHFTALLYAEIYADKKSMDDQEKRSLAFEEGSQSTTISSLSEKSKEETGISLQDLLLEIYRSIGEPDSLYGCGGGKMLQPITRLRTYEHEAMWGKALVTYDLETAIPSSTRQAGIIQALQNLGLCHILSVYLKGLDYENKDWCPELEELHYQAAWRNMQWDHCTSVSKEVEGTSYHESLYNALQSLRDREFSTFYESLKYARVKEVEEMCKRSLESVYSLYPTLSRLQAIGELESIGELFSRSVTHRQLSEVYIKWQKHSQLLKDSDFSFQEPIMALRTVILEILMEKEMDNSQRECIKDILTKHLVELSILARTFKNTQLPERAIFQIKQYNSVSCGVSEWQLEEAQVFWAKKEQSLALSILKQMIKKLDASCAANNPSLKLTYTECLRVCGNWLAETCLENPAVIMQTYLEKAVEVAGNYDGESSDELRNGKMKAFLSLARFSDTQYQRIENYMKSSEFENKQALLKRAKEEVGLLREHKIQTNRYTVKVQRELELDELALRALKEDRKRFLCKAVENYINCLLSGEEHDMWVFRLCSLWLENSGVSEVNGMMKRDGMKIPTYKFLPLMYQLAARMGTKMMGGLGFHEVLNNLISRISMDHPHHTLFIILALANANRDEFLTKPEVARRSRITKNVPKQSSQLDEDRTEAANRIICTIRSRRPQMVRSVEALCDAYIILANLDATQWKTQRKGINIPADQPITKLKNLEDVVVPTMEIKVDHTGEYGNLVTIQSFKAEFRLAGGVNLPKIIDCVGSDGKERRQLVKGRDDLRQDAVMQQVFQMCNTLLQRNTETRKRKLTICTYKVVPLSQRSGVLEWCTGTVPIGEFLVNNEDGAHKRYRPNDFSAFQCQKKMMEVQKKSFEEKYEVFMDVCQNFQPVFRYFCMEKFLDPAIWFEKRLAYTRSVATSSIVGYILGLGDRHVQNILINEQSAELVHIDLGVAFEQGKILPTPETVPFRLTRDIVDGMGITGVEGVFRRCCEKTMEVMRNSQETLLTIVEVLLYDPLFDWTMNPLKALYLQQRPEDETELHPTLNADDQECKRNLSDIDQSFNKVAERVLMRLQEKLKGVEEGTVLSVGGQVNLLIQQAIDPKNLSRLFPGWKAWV
Method: (§1) The assay is available as a product of DiscoverX/Eurofins. ATM (h) was incubated in assay buffer containing 30 nM GST-cMyc-p53 and Mg/ATP (concentration of 10 µM). The reaction is initiated by the addition of the Mg/ATP mix. After incubation for 30 min at room temperature, the reaction was stopped by the addition of stop solution containing EDTA. Finally, detection buffer was added, which contained a d2-labelled anti-GST monoclonal antibody and a europium-labelled anti-phospho Ser15 antibody against phosphorylated p53. The plate was then read in time-resolved fluorescence mode, and the homogeneous time-resolved fluorescence (HTRF) signal is determined according to the formula HTRF = 10000 x (Em665 nm/Em620 nm).

DNA-PK (h) = molecular target: T3, DNA-PK (h) (Homo sapiens, UniProt P78527); assay: DNA-PK kinase activity assay (DiscoverX/Eurofins, HTRF); details: ATP 10 µM
T3 construct: purchased DiscoverX/Eurofins
Method: as §1, with “DiscoverX/Eurofins. DNA-PK” for “DiscoverX/Eurofins. ATM”, “containing 50” for “containing 30”, “plate is” for “plate was”, “= 10,000 ×” for “= 10000 x”

ATR/ATRIP (h) = molecular target: T4, ATR/ATRIP (h) (Homo sapiens, UniProt Q13535); assay: ATR kinase activity assay (DiscoverX/Eurofins, HTRF); details: ATP 10 µM
T4 construct: purchased DiscoverX/Eurofins
Method: as §1, with “DiscoverX/Eurofins. ATR/ATRIP” for “DiscoverX/Eurofins. ATM”, “containing 50” for “containing 30”, “reaction was” for “reaction is”, “plate is” for “plate was”, “signal was” for “signal is”, “= 10,000 ×” for “= 10000 x”

## CC(=O)c1cn(-c2ccn3ncc(-c4cccc(C(=O)C5CNC5)c4)c3n2)cn1 [QFASG-1]
CaMKK2 (h)
  IC50: > 10 µM

## CC(=O)c1ccc(-c2cnn3ccc(C(N)=O)nc23)cc1 [QFASG-2]
CaMKK2 (h)
  IC50: 3 µM
  hill slope (CAMKK2 dose-response): −0.85

## CNC(=O)Nc1ccc(-c2ccn3ncc(-c4c[nH]c(C#N)n4)c3n2)cc1 [QFASG-3]
CaMKK2 (h)
  IC50: 6 µM
  hill slope (CAMKK2 dose-response): −1.05

## Cc1cc(N(C)c2ccc3ncc(NCC(=O)O)cc3c2)n(C2CC2)n1 [QFASG-4]
ATM (h)
  remaining activity at 10 µM: 98%

## Cn1cc(-c2ccc3ncc(NC(=O)Nc4cccc(F)c4F)cc3c2)cn1 [QFASG-5]
ATM (h)
  remaining activity at 10 µM: 71%

## N#Cc1ccc2ncc(NC(=O)Nc3cccnc3)cc2c1 [QFASG-6, 1-(6-cyanoquinolin-3-yl)-3-(pyridin-3-yl) urea]
ATM (h)
  IC50: 4 µM
  hill slope (ATM dose-response): −1.1
  remaining activity at 10 µM: 31%
DNA-PK (h)
  IC50: 8 µM
  hill slope (DNA-PK dose-response): −0.85
ATR/ATRIP (h)
  ATR inhibition (in words): no ATR inhibition was observed
  IC50: > 10 µM
